Measured values from patent US20030130355A1, “Therapeutic agents” (priority 2000, published 2003).

Experiments:
[1] = test system: conscious, telemetered rats; type: in vivo, rat
Description: The methods used were similar to those described in:
Brockway, B P, Mills, P A & Azar, S H (1991) A new method for continuous chronic measurement of blood pressure, heart rate and activity in the rat via radio-telemetry. Clinical and Experimental Hypertension—Theory and Practice A13(5), 885-895 and
Guiol, C, Ledoussal, C & Surgé, J-M (1992) A radiotelemetry system for chronic measurement of blood pressure and heart rate in the unrestrained rat. Validation of method. Journal of Pharmacological and Toxicological Methods 28, 99-105.
In brief, male rats (n=10) were implanted with a telemetry device for the measurement of arterial blood pressure and heart rate. Two weeks following implantation each animal received a single oral dose of vehicle, one dose of sibutramine or a combination of sibutramine and flesinoxan in a cross-over design. Measurements of blood pressure and heart rate were taken from each rat in sequence every three minutes for nine hours following drug administration and averaged into appropriate time-bins. Statistical comparisons were by the least significant difference or multiple t-test.
In FIGS. 1 and 2, shaded circles relate to the administration of vehicle alone p.o., shaded squares relate to the administration of sibutramine at 10 mg/kg p.o. and shaded triangles relate to the administration of sibutramine at 10 mg/kg p.o. together with flesinoxan at 30 mg/kg p.o. Statistical comparisons made by the least significant difference or multiple t-test are shown as *=p<0.05 versus vehicle and t=p<0.05 versus sibutramine.

rats = details: cited from earlier work

With `CC(C)CC(N(C)C)C1(c2ccc(Cl)cc2)CCC1` (centres unmarked) [sibutramine, N-{1-[1-(4-chlorophenyl)cyclobutyl]-3-methylbutyl}-N,N-dimethylamine] the “mean arterial blood pressure” value ([1]; sibutramine 10 mg/kg p.o. alone, versus vehicle, conscious telemetered male rats, nine hours, FIG. 1) was “significant increase” and the heart rate ([1]; sibutramine 10 mg/kg p.o. alone, conscious telemetered rats, FIG. 2) was “increase in heart rate”.

For `CCCN(CCC)C1CCc2cccc(O)c2C1` (centres unmarked) [8-OH-DPAT], the food intake (rats) is listed as “increases food intake”.

In the case of `O=C(NCCN1CCN(c2cccc3c2OC[C@H](CO)O3)CC1)c1ccc(F)cc1` [flesinoxan], the “effect on the increase in mean arterial blood pressure induced by sibutramine” value ([1]; flesinoxan 30 mg/kg p.o. co-administered with sibutramine 10 mg/kg p.o., FIG. 1) is reported as “completely reversed” and the “effect on the increase in heart rate produced by sibutramine” value ([1]; flesinoxan 30 mg/kg p.o. co-administered with sibutramine 10 mg/kg p.o., FIG. 2) is reported as “prevented the increase in heart rate”.
